Test results reported in patent US12421211B2, “Heterocyclic compounds” (Hoffmann-La Roche Inc., priority 2021, dated 2025).
Structures can show the parent of a compound that is named as a salt.

What was measured:
[1] = tested on: Acinetobacter baumannii ATCC17978; test: Minimal Inhibitory Concentration (MIC) assay; format: cell-based; conditions: Acinetobacter baumannii ATCC17978, CAMHB medium, 20 hours at 35±2° C., visual reading; read-out: MIC AB. ATCC17978
[2] = tested on: Acinetobacter baumannii ATCC17961; test: Antimicrobial susceptibility testing: 90% growth inhibitory concentration (IC90) determination; format: cell-based; conditions: Acinetobacter baumannii, ATCC17961, 16 h, 90% growth inhibitory concentration, Acinetobacter baumannii ATCC17961, Iso-Sensitest broth, OD 600 nm over 16 h; read-out: ATCC 17961 IC90
Summary of the method: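 Growth inhibition derived in log phase from OD600 kinetics (every 20 minutes, 16h, 35±2° C) of ATCC17961 in Iso-Sensitest medium, inoculum ~5×10^5 CFU/ml. Compounds tested as twofold series, 10 points (e.g. 50 to 0.097 μM final); IC90 and IC50 reported.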

Cn1c(-c2ccc(-c3cn[nH]c3-c3ccccn3)c(F)c2F)cnc1C(=O)Nc1ccc(C(=O)N2CCN(C(=O)C3CC[N+](C)(C)CC3)CC2)c(Cl)c1 [Example I1, N-[3-chloro-4-[4-(1,1-dimethylpiperidin-1-ium-4-carbonyl)piperazine-1-carbonyl]phenyl]-5-[2,3-difluoro-4-[5-(2-pyridyl)-1H-pyrazol-4-yl]phenyl]-1-methyl-imidazole-2-carboxamide; formate]
MIC [1]: 2.32 µM
IC90 [2]: 432 nM

COc1ccc(-c2[nH]ncc2-c2ccc(-c3cnc(C(=O)Nc4ccc(C(=O)N5CCN(C(=O)C6CC[N+](C)(C)CC6)CC5)c(Cl)c4)n3C)c(F)c2F)cc1 [Example I2, N-[3-chloro-4-[4-(1,1-dimethylpiperidin-1-ium-4-carbonyl)piperazine-1-carbonyl]phenyl]-5-[2,3-difluoro-4-[5-(4-methoxyphenyl)-1H-pyrazol-4-yl]phenyl]-1-methyl-imidazole-2-carboxamide; formate]
MIC [1]: 2.41 µM
IC90 [2]: 608 nM

COc1cccc(-c2[nH]ncc2-c2ccc(-c3cnc(C(=O)Nc4ccc(C(=O)N5CCN(C(=O)C6CC[N+](C)(C)CC6)CC5)c(Cl)c4)n3C)c(F)c2F)c1 [Example I3, N-[3-chloro-4-[4-(1,1-dimethylpiperidin-1-ium-4-carbonyl)piperazine-1-carbonyl]phenyl]-5-[2,3-difluoro-4-[5-(3-methoxyphenyl)-1H-pyrazol-4-yl]phenyl]-1-methyl-imidazole-2-carboxamide; formate]
MIC [1]: 1.81 µM
IC90 [2]: 398 nM
